# Tests used:
# [1] = Liposome leakage (carboxyfluorescein release); assay type: biochemical; settings: % ± SD of leakage with Triton X-100, CF fluorescence 520 nm, 37°C, at least triplicate
# Protocol: Subsequently, buffer (10 mM Tris, pH 7.4) was added together with 0.1 M carboxyfluorescein (CF) (Sigma, St Louis, MO). After hydration, the lipid mixture was subjected to eight freeze-thaw cycles consisting of freezing in liquid nitrogen and heating to 60°C. Unilamellar liposomes of about Ø140 nm were generated by multiple extrusions through polycarbonate filters (pore size 100 nm) mounted in a […] (Avestin, Ottawa, Canada) at 22°C. Untrapped CF was then removed by two gel filtrations (Sephadex G-50) at 22°C, with Tris buffer as eluent. CF release was determined by monitoring the emitted fluorescence at 520 nm from liposome dispersions (10 mM lipid in 10 mM Tris). An absolute leakage scale was obtained by disrupting the liposomes at the end of the experiment through addition of 0.8 mM Triton X100 (Sigma, St Louis, MO), causing 100% release and dequenching of CF. Although calcein is frequently used for pH-dependent leakage studies, the high charge of this dye has been noted to influence its leakage behavior in the presence of highly cationic peptides. Instead, therefore, CF was used as a leakage marker at both pH 6.0 and 7.4, avoiding pH-dependent fluorescence effects through neutralization prior to probing the limiting leakage in case of pH 6.0 leakage. Throughout, a SPEX-fluorolog 1650 0.22-m double spectrometer (SPEX Industries, Edison, NJ) was used for the liposome leakage assay. Measurements were performed in at least triplicate at 37°C.
# [2] = Liposome leakage (carboxyfluorescein release); assay type: biochemical; settings: pH 6.0, % ± SD of leakage with Triton X-100, CF fluorescence 520 nm, 37°C, at least triplicate, DOPC/cholesterol liposomes
# Protocol: Dry lipid films were prepared by dissolving dioleoylphosphatidylcholine (1,2-dioleoyl-sn-Glycero-3-phoshocholine, >99% purity, Avanti Polar Lipids, Alabaster, AL) (60 mol%) (DOPC) and either ergosterol or cholesterol (both >99% purity, Sigma) (40 mol%) in chlorofom, and then removing the solvent by evaporation under vacuum overnight. Subsequently, buffer (10 mM Tris, pH 7.4) was added together with 0.1 M carboxyfluorescein (CF) (Sigma, St Louis, MO). After hydration, the lipid mixture was subjected to eight freeze-thaw cycles consisting of freezing in liquid nitrogen and heating to 60°C. Unilamellar liposomes of about Ø140 nm were generated by multiple extrusions through polycarbonate filters (pore size 100 nm) mounted in a LipoFastminiextruder (Avestin, Ottawa, Canada) at 22°C. Untrapped CF was then removed by two gel filtrations (Sephadex G-50) at 22°C, with Tris buffer as eluent. CF release was determined by monitoring the emitted fluorescence at 520 nm from liposome dispersions (10 mM lipid in 10 mM Tris). An absolute leakage scale was obtained by disrupting the liposomes at the end of the experiment through addition of 0.8 mM Triton X100 (Sigma, St Louis, MO), causing 100% release and dequenching of CF. Although calcein is frequently used for pH-dependent leakage studies, the high charge of this dye has been noted to influence its leakage behavior in the presence of highly cationic peptides. Instead, therefore, CF was used as a leakage marker at both pH 6.0 and 7.4, avoiding pH-dependent fluorescence effects through neutralization prior to probing the limiting leakage in case of pH 6.0 leakage. Throughout, a SPEX-fluorolog 1650 0.22-m double spectrometer (SPEX Industries, Edison, NJ) was used for the liposome leakage assay. Measurements were performed in at least triplicate at 37°C.
# [3] = pH 6.0, +EDTA, DOPC/ergosterol liposomes
# [4] = pH 6.0, without EDTA, DOPC/ergosterol liposomes
Molecule,"Liposome leakage [1, 3] [%]","Liposome leakage [1, 4] [%]","Liposome leakage ([1]; pH 7.4, +EDTA) [%]","Liposome leakage ([1]; pH 7.4, without EDTA) [%]",Liposome leakage ([2]; +EDTA) [%],Liposome leakage ([2]; without EDTA) [%]
"RIFKKEDCKYI [MSP66–76, eleven residues at the very tip of the loop (residue 66–76)]",41±9,31±6,16±7,29±6,0,0
"β-microseminoprotein (natural protein, human, UniProt P08118 21-114, looked up, human β-microseminoprotein (MSP, PSP94), native protein purified from seminal plasma; also called MSP; PSP94) SCYFIPNEGVPGDSTRKCMDLKGNKHPINSEWQTDNCETCTCYETEISCCTLVSTPVGYDKDNCQRIFKKEDCKYIVVEKKDPKKTCSVSEWII",53±5,36±8,20±6,20±5,4±2,0
